Assay results from US20090325959A1 (priority 2008, published 2009).
Where two headings read alike, the source gives them in different places.

Tests used:
ROCK2 = molecular target: T1, ROCK2 (Homo sapiens, UniProt O75116); test: Rho kinase inhibition assay (IMAP fluorescence polarization), ROCK2; format: biochemical;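 note: kinase reaction started with 10 µM ATP and run 60 min at room temperature, then phosphorylated substrate captured on IMAP beads for 30 min and fluorescence polarization read in mP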
T1 construct: purchased Upstate/Chemicon 14-451
Method: (§1) Following the pre-incubation, 10 μM ATP was added to initiate the reaction. After 60 minutes at room temperature, Molecular Devices IMAP™ binding solution was added to bind phosphorylated substrate. After 30 minutes of incubation in the presence of the IMAP™ beads, the fluorescence polarization was read and the ratio was reported as mP. IC50 values for compounds and EC50 values for ATP were calculated using the Prism software from Graphpad.

[1] = Rat oral pharmacokinetics (plasma); format: in vivo; settings: 20-30 μmol/kg; for Vz_F / AUC(0-t): mean n = 3; for AUC(0-t) / Cmax / Tmax / half-life: male, CD Sprague Dawley; for Cmax: mean n = 3, read-out: Cmax; for Tmax: mean n = 3, read-out: Tmax; for half-life: mean n = 3, read-out: t½ (converted)
Method: Plasma (EDTA K2 anticoagulant) was collected from male, cannulated, CD Sprague Dawley rats to determine the pharmacokinetics of formulations containing compound inhibitors of Rho kinase. Each animal was dosed orally with a 4 ml/kg solution or suspension of each test compound in 10 mM acetate buffered saline, pH 4.5 at a final concentration range of 20-30 μmol/kg. Blood was collected at 0.25, 0.5, 1, 2, 4, 6, 8, and 24 hours. Plasma samples were assayed for the concentration of the test compound using an on-line, solid phase extraction LC/MS/MS analysis system.
Samples were analyzed on a QSTAR Elite, hybrid quadrupole time-of-flight mass spectrometer (Applied Biosystems, Framingham, Mass.) coupled with a Symbiosis Pharma integrated, on-line SPE-HPLC system (Spark Holland Inc., Plainsboro, N.J.). Analyst QS 2.0 software was used for instrument control, data acquisition and processing. […] Mobile Phase A consisted of 0.1% ammonium hydroxide in water and Mobile Phase B consisted of 0.1% formic acid in acetonitrile. Pharmacokinetic analyses were performed using WinNonlin software version 5.2 (Pharsight Corporation, Mountain View, Calif.).
As determined from the plasma concentration versus time curves, the time to peak and peak exposure are represented by the values Tmax and Cmax, respectively. The AUC values (nM*hr) shown were calculated as the areas under the plasma concentration versus time curves from time zero through the time of the last observable value and represent the total exposure of the compound over the course of the study. Half-life values or the amount of time required for the plasma levels of the compound to decline to half the initial value are represented as t½.

ROCK1 = molecular target: T2, ROCK1 (Homo sapiens, UniProt Q13464); test: Rho kinase inhibition assay (IMAP fluorescence polarization), ROCK1; format: biochemical;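 note: kinase reaction run 60 min at room temperature, then phosphorylated substrate captured on IMAP beads for 30 min, with fluorescence polarization read in mP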
T2 construct: purchased Upstate/Chemicon 14-601
Method: as §1

[2] = system: A-10 rat thoracic aorta cells; test: PDGF-stimulated smooth muscle cell proliferation assay (BrdU incorporation); format: cell-based; settings: A-10 cells, 10 ng/mL PDGF, BrdU incorporation, percent of total challenge-stimulated proliferation; for Percent of PDGF Induced Proliferation at 1 μM Avg: 1 μM test compound; for Percent of PDGF Induced Proliferation at 10 μM Avg: 10 μM test compound;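 for all read-outs here: cells kept in serum-free medium, BrdU allowed to incorporate for 24 h, then incorporated label detected fluorometrically with an anti-BrdU antibody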
Method: Effects on cell proliferation were measured using a bromodeoxyuridine (BrdU) incorporation assay. […] Serum free media containing 01% BSA was added to the cells. 24 hours later the media was removed and replaced with warmed serum free media. […] Proliferation was then monitored using the BrdU Cell Proliferation Assay, HTS (Calbiochem cat. #t HTS01). BrdU was allowed to incorporate into cells for 24 hours prior to the addition of fixative/denaturing solution and the fluorometric detection of incorporated BrdU using a BrdU antibody as per manufacturer's directions. Data are reported as a percent of the PDGF-stimulated BrdU incorporation.

[3] = Compound plasma concentrations in unsensitized mice at 15 min post administration; format: in vivo; settings: mouse, 15 μmol/kg; mean compound plasma concentration in mice at 15 minutes post oral administration; read-out: Mouse Oral PK
Akt3 human enzyme = molecular target: T3, Akt3 human enzyme (Homo sapiens, UniProt Q9Y243); test: Akt3 inhibition assay (IMAP FP); format: biochemical;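 note: kinase reaction run 60 min at room temperature after 30 µM ATP start, phosphorylated substrate captured on IMAP beads and read as fluorescence polarization (mP)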
T3 construct: purchased Upstate Chemicon 14-502
Method: Inhibition of Akt3 and p70S6K activity was determined using the IMAP™ FP Progressive Binding Kit (Molecular Devices product number R8127). […] Following the pre-incubation, 30 μM ATP was added to initiate the reaction. After 60 minutes at RT, Molecular Devices IMAP™ binding solution was added to bind phosphorylated substrate. After 30 minutes of incubation in the presence of the IMAP™ beads the fluorescence polarization was read and the ratio was reported as mP. IC50 results were calculated using the Prism software from Graphpad. The Ki values were determined according to the following formula: Ki=IC50/(1+([ATP Challenge]/EC50 ATP)).

p70S6K human enzyme = molecular target: T4, p70S6K human enzyme (Homo sapiens, UniProt P23443, T412E); test: p70S6K inhibition assay (IMAP FP); format: biochemical;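 note: kinase reaction run at room temperature, phosphorylated substrate captured on IMAP beads and read as fluorescence polarization in mP, IC50 then converted to Ki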
T4 construct: purchased Upstate Chemicon 14-486

[4] = 10 μM ATP, read-out: ROCK2 Ki, Avg
[5] = 30 μM ATP, Ki=IC50/(1+([ATP Challenge]/EC50 ATP)), read-out: Akt3 Ki, Avg
[6] = 30 μM ATP, Ki=IC50/(1+([ATP Challenge]/EC50 ATP)), read-out: p70S6K Ki, Avg
[7] = average Ki, read-out: p70S6K Ki

T1 sequence (O75116 11-552 limits assumed): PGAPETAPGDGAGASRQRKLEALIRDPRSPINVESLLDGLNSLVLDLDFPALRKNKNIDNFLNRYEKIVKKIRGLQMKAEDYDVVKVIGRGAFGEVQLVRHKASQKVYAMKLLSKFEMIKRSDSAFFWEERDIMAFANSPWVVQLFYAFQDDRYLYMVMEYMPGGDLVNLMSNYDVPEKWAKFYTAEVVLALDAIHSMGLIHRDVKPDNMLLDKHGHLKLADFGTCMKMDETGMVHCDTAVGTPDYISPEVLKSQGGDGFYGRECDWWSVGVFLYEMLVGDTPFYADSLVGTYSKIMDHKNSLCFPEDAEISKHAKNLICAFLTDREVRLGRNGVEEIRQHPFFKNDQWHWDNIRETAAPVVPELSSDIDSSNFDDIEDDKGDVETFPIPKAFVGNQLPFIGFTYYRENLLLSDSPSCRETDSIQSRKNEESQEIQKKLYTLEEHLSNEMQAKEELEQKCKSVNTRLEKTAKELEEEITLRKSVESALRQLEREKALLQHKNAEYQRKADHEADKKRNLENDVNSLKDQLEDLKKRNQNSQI
T4 sequence (P23443 1-421 T412E limits assumed): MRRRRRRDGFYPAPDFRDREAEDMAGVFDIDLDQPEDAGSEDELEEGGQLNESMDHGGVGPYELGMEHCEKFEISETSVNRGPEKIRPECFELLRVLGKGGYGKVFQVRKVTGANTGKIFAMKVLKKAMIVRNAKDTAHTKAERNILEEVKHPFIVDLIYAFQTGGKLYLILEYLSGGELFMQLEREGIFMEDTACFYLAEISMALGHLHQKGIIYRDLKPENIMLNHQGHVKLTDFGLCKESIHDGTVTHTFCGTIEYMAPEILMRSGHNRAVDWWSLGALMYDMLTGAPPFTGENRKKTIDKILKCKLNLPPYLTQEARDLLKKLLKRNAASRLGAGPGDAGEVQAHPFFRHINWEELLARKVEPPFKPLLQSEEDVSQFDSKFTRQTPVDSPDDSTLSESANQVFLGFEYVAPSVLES
T3 sequence (Q9Y243 whole entry): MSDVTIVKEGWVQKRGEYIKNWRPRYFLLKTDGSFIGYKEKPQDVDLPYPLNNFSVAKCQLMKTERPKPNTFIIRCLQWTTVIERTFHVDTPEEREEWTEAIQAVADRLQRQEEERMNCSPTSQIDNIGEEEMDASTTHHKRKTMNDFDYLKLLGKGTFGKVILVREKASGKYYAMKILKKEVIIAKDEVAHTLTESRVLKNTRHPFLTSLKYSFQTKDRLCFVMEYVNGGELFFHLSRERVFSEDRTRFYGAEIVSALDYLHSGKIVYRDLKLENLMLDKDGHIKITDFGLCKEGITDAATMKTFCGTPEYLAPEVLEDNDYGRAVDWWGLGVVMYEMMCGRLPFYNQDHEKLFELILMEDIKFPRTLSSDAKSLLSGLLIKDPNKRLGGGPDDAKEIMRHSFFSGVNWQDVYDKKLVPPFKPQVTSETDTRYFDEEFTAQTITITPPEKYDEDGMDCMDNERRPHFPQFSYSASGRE
T2 sequence (Q13464 17-535 limits assumed): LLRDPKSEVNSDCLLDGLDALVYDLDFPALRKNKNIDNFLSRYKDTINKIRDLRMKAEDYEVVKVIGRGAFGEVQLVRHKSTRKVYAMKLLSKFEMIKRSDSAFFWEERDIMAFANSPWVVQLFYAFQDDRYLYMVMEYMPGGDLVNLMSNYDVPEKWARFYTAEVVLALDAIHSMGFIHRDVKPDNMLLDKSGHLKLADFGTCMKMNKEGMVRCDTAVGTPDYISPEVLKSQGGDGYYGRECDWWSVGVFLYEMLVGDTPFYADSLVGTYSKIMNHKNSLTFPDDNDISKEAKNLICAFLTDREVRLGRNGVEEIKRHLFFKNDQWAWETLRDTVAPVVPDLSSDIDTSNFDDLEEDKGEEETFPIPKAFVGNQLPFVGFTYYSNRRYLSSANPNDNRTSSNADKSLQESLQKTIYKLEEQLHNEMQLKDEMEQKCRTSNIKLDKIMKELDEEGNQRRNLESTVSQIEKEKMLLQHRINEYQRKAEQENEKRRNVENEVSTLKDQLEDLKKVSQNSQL

Row | SMILES | Ki (ROCK2; [4]) [nM] | Vz_F [1] [L/kg] | AUC(0-t) [1] [µM·h] | Cmax [1] [nM] | Tmax [1] [h] | half-life [1] [h] | Ki (ROCK1; Avg, 10 μM ATP) [nM] | Percent of PDGF Induced Proliferation at 1 μM Avg [2] [%] | Percent of PDGF Induced Proliferation at 10 μM Avg [2] [%] | Ki (ROCK2; average Ki, read-out: ROCK2 Ki) [nM] | concentration at 15 min [3] [nM] | Ki (Akt3 human enzyme; [5]) [nM] | Ki (Akt3 human enzyme; average Ki, read-out: Akt3 Ki) [nM] | Ki (ROCK1; average Ki) [nM] | Ki (p70S6K human enzyme; [6]) [nM] | Ki (p70S6K human enzyme; [7]) [nM]
1 | Cc1ccc(CN2CCC[C@H](Nc3cccc4cnccc34)C2)cc1 [Compound 2.045, (S)-N-(1-(4-methylbenzyl)piperidin-3-yl)isoquinolin-5-amine] | 88 | 226 | 0.456 | 223 | 0.67 | 1.59 | 90.6 |  |  |  |  |  |  |  |  | 
2 | c1cc2ccc(CN3CCC[C@H](Nc4ccc5[nH]ncc5c4)C3)cc2[nH]1 [Compound 1.148, (S)-N-(1-((1H-indol-6-yl)methyl)piperidin-3-yl)-1H-indazol-5-amine] | 3.6 |  |  |  |  |  | 24.3 | 56.9 | 63.5 | 3.6 | 767 | 1130 | 1130 | 24.3 | 436 | 436
3 | CCS(=O)(=O)Nc1cc(CN2CCC[C@H](Nc3ccc4[nH]ncc4c3)C2)ccc1C [Compound 1.253, (S)-N-(5-((3-(1H-indazol-5-ylamino)piperidin-1-yl)methyl)-2-methylphenyl)ethanesulfonamide] | 1.7 |  |  |  |  |  | 59.9 | 44.8 | 47.9 | 1.7 | 240 | 2600 | 2600 | 59.9 | 2510 | 2510
4 | c1cc(C2CC2)ccc1CN1CCC[C@@H](Nc2ccc3[nH]ncc3c2)C1 [Compound 1.206, (R)-N-(1-(4-cyclopropylbenzyl)piperidin-3-yl)-1H-indazol-5-amine] | 9.1 |  |  |  |  |  | 64.4 | 77.5 | 51.1 | 9.1 | 672 | 529 | 529 | 64.4 | 314 | 314
5 | COc1ccc(CN2CC[C@@H](Nc3cccc4cnccc34)C2)cc1 [Compound 2.047, (R)-N-(1-(4-methoxybenzyl)pyrrolidin-3-yl)isoquinolin-5-amine] | 7 |  |  |  |  |  | 26.4 | 65.3 | 53.8 | 7 | 3 | 1940 | 1940 | 26.4 | 437 | 437
6 | OCCn1ccc2ccc(CN3CCC[C@@H](Nc4ccc5[nH]ncc5c4)C3)cc21 [Compound 1.108, (R)-2-(6-((3-(1H-indazol-5-ylamino)piperidin-1-yl)methyl)-1H-indol-1-yl)ethanol] | 6.5 | 116 | 0.415 | 209 | 0.83 | 1.36 | 25.6 | 83.1 | 43.7 | 6.5 | 395 | 205 | 205 | 25.6 | 511 | 511
7 | C#Cc1ccc(CN2CCC[C@@H](Nc3ccc4[nH]ncc4c3)C2)cc1 [Compound 1.076, (R)-N-(1-(4-ethynylbenzyl)piperidin-3-yl)-1H-indazol-5-amine] | 2.6 |  |  |  |  |  | 14.3 | 84.0 | 53.7 | 2.6 | 1720 | 241 | 241 | 14.3 | 414 | 414
8 | CC(=O)NCc1cccc(CN2CCC[C@H](Nc3ccc4[nH]ncc4c3)C2)c1 [Compound 1.197] | 5 |  |  |  |  |  | 120 | 52.5 | 48.9 | 5 | 453 | 64100 | 64100 | 120 | 8690 | 8690
